Experimental data as given in publication PMC6667408, “Discovery and preclinical characterization of [^18F]PI-2620, a next-generation tau PET tracer for the assessment of tau pathology in Alzheimer’s disease and other tauopathies” (European Journal of Nuclear Medicine and Molecular Imaging, 2019).

Legend:
MAO-B = target: T1, MAO-B (Homo sapiens, UniProt P27338); assay: radioligand displacement of [3H]deprenyl, filtration; assay type: binding; settings: [3H]deprenyl radioligand, PBS, 0.1% BSA, 2% DMSO
T1 construct: gene MAOB; native enzyme in human non-demented control (NDC) brain homogenate
T1 sequence (P27338 2-520): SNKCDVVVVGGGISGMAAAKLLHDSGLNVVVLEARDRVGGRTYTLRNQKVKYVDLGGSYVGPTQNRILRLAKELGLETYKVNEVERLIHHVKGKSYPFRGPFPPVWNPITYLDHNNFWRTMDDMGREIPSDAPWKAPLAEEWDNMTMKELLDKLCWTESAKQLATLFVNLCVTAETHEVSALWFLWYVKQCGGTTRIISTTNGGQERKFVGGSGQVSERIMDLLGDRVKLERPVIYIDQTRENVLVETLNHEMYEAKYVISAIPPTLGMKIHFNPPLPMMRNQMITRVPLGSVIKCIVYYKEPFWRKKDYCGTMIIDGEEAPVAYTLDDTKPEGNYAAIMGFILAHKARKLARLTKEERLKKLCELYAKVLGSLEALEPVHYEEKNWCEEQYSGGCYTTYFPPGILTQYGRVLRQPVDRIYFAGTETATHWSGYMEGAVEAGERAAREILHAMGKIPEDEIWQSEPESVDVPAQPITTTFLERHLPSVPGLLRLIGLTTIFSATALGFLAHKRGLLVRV

MAO-A = target: T2, MAO-A (Mus musculus, UniProt Q64133); assay: radioligand displacement of […]FEH, filtration; assay type: binding; settings: [18F]fluoroethylharmine radioligand, PBS, 0.1% BSA, 2% DMSO
T2 construct: gene Maoa; native enzyme in mouse brain homogenate, 20 ug/well
T2 sequence (Q64133 1-526): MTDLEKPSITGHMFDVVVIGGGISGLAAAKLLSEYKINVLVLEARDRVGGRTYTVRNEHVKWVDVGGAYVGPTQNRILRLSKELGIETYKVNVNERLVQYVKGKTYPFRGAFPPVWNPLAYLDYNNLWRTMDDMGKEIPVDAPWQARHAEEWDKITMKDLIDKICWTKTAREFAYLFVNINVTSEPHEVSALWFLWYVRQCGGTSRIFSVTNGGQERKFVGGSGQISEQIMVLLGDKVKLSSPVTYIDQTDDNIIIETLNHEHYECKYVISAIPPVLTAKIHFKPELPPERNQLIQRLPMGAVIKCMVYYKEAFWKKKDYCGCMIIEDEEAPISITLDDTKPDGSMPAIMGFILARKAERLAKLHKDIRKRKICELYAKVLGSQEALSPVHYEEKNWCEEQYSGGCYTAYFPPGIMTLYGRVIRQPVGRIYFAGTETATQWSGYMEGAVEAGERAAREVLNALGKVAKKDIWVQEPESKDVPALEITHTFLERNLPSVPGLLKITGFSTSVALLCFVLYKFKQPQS

| SMILES | pIC50 (MAO-B) | [^18F]FEH MAO-A pIC50^a (MAO-A) | [^3H]Deprenyl MAO-B pIC50^c (MAO-B) |
| --- | --- | --- | --- |
| CNc1ccc(-c2ccc3cc(OCC(O)CF)ccc3n2)cn1 (stereo not drawn) [THK5151, reference compound] | 7.4 |  |  |
| Fc1ccc(-c2ccc3c(n2)[nH]c2ccncc23)nc1 [compound 10, 10] |  | 7.1 | 6.5 |
| Fc1ccc(-c2ccc3c(n2)[nH]c2ccncc23)cn1 [compound 3, RO6958948] |  | 6.3 |  |
| Fc1ccc(-c2ccc3c(c2)[nH]c2ccncc23)cn1 [compound 1, AV-1451] |  | 7.7 | 6.8 |
| Fc1cccc(-c2ccc3c(n2)[nH]c2ccncc23)n1 [compound 9, 9] |  | 6.6 | 6.5 |
| Fc1cnccc1-c1ccc2c(n1)[nH]c1ccncc12 [compound 8, 8] |  | 6.1 |  |
